Measurements taken from patent publication US20100204508A1, “DENDRITIC COMPOUND AND USE THEREOF” (Industrial Technology Research Institute, priority 2004, published 2010).

Tests used:
[1] = magnetizing relaxation rate via NMR (R1, R2); format: physicochemical; conditions: B0 = 0.47 T, vertical relative relaxation
[2] = B0 = 1.0T; cited from earlier work

- R1(20 MHz) [1]: 6.14
Compound: CNC[C@H](O)[C@@H](O)[C@H](O)[C@H](O)CO.CNC[C@H](O)[C@@H](O)[C@H](O)[C@H](O)CO.O=C([O-])CN(CCN(CC(=O)[O-])CC(=O)O)CCN(CC(=O)[O-])CC(=O)O.[Gd+3] [Magnevist ™]
- R1 (Literature) [2]: R1 = 3.4
